Source: patent US20250380696A1, “METHOD FOR CONTROLLING UNDESIRED PLANTS AND PROMOTING GROWTH OF USEFUL PLANTS” (ISHIHARA SANGYO KAISHA, LTD., priority 2022, published 2025)

Key:
Assay type in all cases: in vivo
[1] = test system: forage corn (cultivar: SNOW DENT OTOHA); experiment: (17) Plant growth promotion effect test (corn), Italian ryegrass sown; settings: 20th day after the sowing, above-ground part
Description: (§1) Upland soil was put in a 1/1,000,000 hectare pot, and seeds of Italian ryegrass (Lolium multiflorum) were sown. When the Italian ryegrass reached 2.5 to 3.0 leaf stage, a water-based suspension containing tiafenacil as the active ingredient, prepared by a conventional method for preparing a water-based suspension, and an emulsifiable concentrate containing S-metolachlor as the active ingredient (tradename: Dual Gold, manufactured by Syngenta) or a wettable powder containing metribuzin as the active ingredient (tradename: SENCOR wettable powder, manufactured by Bayer Crop Science) were diluted with water (in an amount corresponding to 200 liter per hectare) containing 0.5 vol % of an agricultural spreader (tradename: Destiny HC, manufactured by Winfield Solutions, LLC.) and sprayed by a small spray gun (model: W-101-132G, manufactured by ANEST IWATA Corporation). Seeds of forage corn (cultivar: SNOW DENT OTOHA, manufactured by SNOW BRAND SEED Co., Ltd.) were sown in the pot after spraying. On the 20th day after the sowing, the above-ground part of the forage corn was reaped, and its weight was measured to obtain the raw weight.

[2] = test system: wheat (cultivar: Norin 61); experiment: (21) Plant growth promotion effect test (wheat), Italian ryegrass sown; settings: 22nd day after the sowing, above-ground part
Description: Upland soil was put in a 1/1,000,000 hectare pot, and seeds of Italian ryegrass (Lolium multiflorum) were sown. When the Italian ryegrass reached 3.3 to 3.8 leaf stage, a water-based suspension containing tiafenacil as the active ingredient, prepared by a conventional method for preparing a water-based suspension, and a wettable powder containing metribuzin as the active ingredient (tradename: SENCOR wettable powder, manufactured by Bayer Crop Science) or water dispersible granules containing pyroxasulfone as the active ingredient (tradename: Sakura, manufactured by Bayer Crop Science) were diluted with water (in an amount corresponding to 200 liter per hectare) containing 0.5 vol % of an agricultural spreader (tradename: Destiny HC, manufactured by Winfield Solutions, LLC.) and sprayed by a small spray gun (model: W-101-132G, manufactured by ANEST IWATA Corporation). Seeds of wheat (cultivar: Norin 61, manufactured by Asahi Noen Seed Co., Ltd.) were sown in the pot after spraying. On the 22nd day after the sowing, the above-ground part of the wheat was reaped, and its weight was measured to obtain the raw weight.

[3] = test system: goosegrass (Eleusine indica); experiment: (10) Herbicidal effect test, pot, spray at 6.5 to 7.8 leaf stage; settings: 13th day after spraying
Description: (§2) [formula] • X: growth inhibition rate when treated with α (g/ha) of compound A, • Y: growth inhibition rate when treated with β (g/ha) of compound B, • E: growth inhibition rate expected when treated with α (g/ha) of compound A and β (g/ha) of compound B (expected value).
Upland soil was put in a 1/1,000,000 hectare pot, and seeds of goosegrass (Eleusine indica) were sown. When the goosegrass reached 6.5 to 7.8 leaf stage, a water-based suspension containing tiafenacil as the active ingredient, prepared by a conventional method for preparing a water-based suspension, and an emulsifiable concentrate containing S-metolachlor as the active ingredient (tradename: Dual Gold, manufactured by Syngenta), a wettable powder containing metribuzin as the active ingredient (tradename: SENCOR wettable powder, manufactured by Bayer Crop Science) or water dispersible granules containing pyroxasulfone as the active ingredient (tradename: Sakura, manufactured by Bayer Crop Science) were diluted with water (in an amount corresponding to 200 liter per hectare) containing 0.5 vol % of an agricultural spreader (tradename: Destiny HC, manufactured by Winfield Solutions, LLC.) and sprayed by a small spray gun (model: W-101-132G, manufactured by ANEST IWATA Corporation). On the 13th day after spraying, the state of growth of the goosegrass was visually observed, and the growth inhibition rate (%) was obtained in accordance with the evaluation standards described in the above (1) herbicidal effect test, and the results are shown in Table 10. Further, the expected value of the growth inhibition rate (%) was calculated in accordance with the Colby's formula described in the above (1) herbicidal effect test, and the results are also shown in Table 10.

[4] = test system: forage corn (cultivar: SNOW DENT OTOHA); experiment: (18) Plant growth promotion effect test (corn), Italian ryegrass sown; settings: 21st day after the sowing, above-ground part
Description: as §1, with “2.7” for “2.5”, “3.1” for “3.0”, “Syngenta),” for “Syngenta) or”, “powder, manufactured by Bayer Crop Science) or water dispersible granules containing pyroxasulfone as the active ingredient (tradename: Sakura,” for “powder,”, “21st” for “20th”

[5] = test system: Italian ryegrass (Lolium multiflorum); experiment: (8) Herbicidal effect test, pot, spray at 3.0 to 3.1 leaf stage; settings: 4th day after spraying
Description: as §2
Upland soil was put in a 1/1,000,000 hectare pot, and seeds of Italian ryegrass (Lolium multiflorum) were sown. When Italian ryegrass reached 3.0 to 3.1 leaf stage, a water-based suspension containing tiafenacil as the active ingredient, prepared by a conventional method for preparing a water-based suspension, and an emulsifiable concentrate containing S-metolachlor as the active ingredient (tradename: Dual Gold, manufactured by Syngenta), a wettable powder containing metribuzin as the active ingredient (tradename: SENCOR wettable powder, manufactured by Bayer Crop Science) or water dispersible granules containing pyroxasulfone as the active ingredient (tradename: Sakura, manufactured by Bayer Crop Science) were diluted with water (in an amount corresponding to 200 liter per hectare) containing 0.5 vol % of an agricultural spreader (tradename: Destiny HC, manufactured by Winfield Solutions, LLC.) and sprayed by a small spray gun (model: W-101-132G, manufactured by ANEST IWATA Corporation). On the 4th day after spraying, the state of growth of the Italian ryegrass was visually observed, and the growth inhibition rate (%) was obtained in accordance with the evaluation standards described in the above (1) herbicidal effect test, and the results are shown in Table 8. Further, the expected value of the growth inhibition rate (%) was calculated in accordance with the Colby's formula described in the above (1) herbicidal effect test, and the results are also shown in Table 8.

COC(=O)CCNC(=O)C(C)Sc1cc(-n2c(=O)cc(C(F)(F)F)n(C)c2=O)c(F)cc1Cl (stereo not shown) [tiafenacil]
Raw weight (g) of forage corn ([1]; Dose 12.5 g/ha): 8.5 g | Raw weight (g) of wheat ([2]; Dose 3 g/ha): 2.3 g | Growth inhibition rate (%) Measured value ([3]; Dose 6.25 g/ha): 30% | Raw weight (g) of forage corn ([4]; Dose 6.25 g/ha): 3.2 g | Growth inhibition rate (%) Measured value ([5]; Dose 6.25 g/ha): 20%

CSc1nnc(C(C)(C)C)c(=O)n1N [metribuzin]
Raw weight (g) of forage corn ([1]; Dose 18.75 g/ha): 6.2 g | Raw weight (g) of wheat ([2]; Dose 150 g/ha): 2.5 g | inhibition at 9.38 g/ha ([3]; Eleusine indica, Dose 9.38 g/ha, read-out: Growth inhibition rate (%) Measured value): 7% | inhibition at 550 g/ha ([3]; Eleusine indica, Dose 550 g/ha, read-out: Growth inhibition rate (%) Measured value): 68% | inhibition at 1100 g/ha ([3]; Eleusine indica, Dose 1100 g/ha, read-out: Growth inhibition rate (%) Measured value): 72% | Raw weight (g) of forage corn ([4]; Dose 225 g/ha): 4.7 g | Raw weight (g) of forage corn ([4]; Dose 550 g/ha): 5.6 g | inhibition at 125 g/ha ([5]; Lolium multiflorum, Dose 125 g/ha, read-out: Growth inhibition rate (%) Measured value): 3% | inhibition at 438 g/ha ([5]; Lolium multiflorum, Dose 438 g/ha, read-out: Growth inhibition rate (%) Measured value): 10% | inhibition at 750 g/ha ([5]; Lolium multiflorum, Dose 750 g/ha, read-out: Growth inhibition rate (%) Measured value): 20% | inhibition at 938 g/ha ([5]; Lolium multiflorum, Dose 938 g/ha, read-out: Growth inhibition rate (%) Measured value): 33%

Cn1nc(C(F)(F)F)c(CS(=O)(=O)C2=NOC(C)(C)C2)c1OC(F)F [pyroxasulfone]
Raw weight (g) of wheat ([2]; Dose 37.5 g/ha): 1.2 g | inhibition at 7.5 g/ha ([3]; Eleusine indica, Dose 7.5 g/ha, read-out: Growth inhibition rate (%) Measured value): 0% | inhibition at 250 g/ha ([3]; Eleusine indica, Dose 250 g/ha, read-out: Growth inhibition rate (%) Measured value): 2% | inhibition at 500 g/ha ([3]; Eleusine indica, Dose 500 g/ha, read-out: Growth inhibition rate (%) Measured value): 2% | Raw weight (g) of forage corn ([4]; Dose 7.5 g/ha): 5.8 g | Raw weight (g) of forage corn ([4]; Dose 125 g/ha): 3.3 g | Raw weight (g) of forage corn ([4]; Dose 250 g/ha): 3.8 g | inhibition at 188 g/ha ([5]; Lolium multiflorum, Dose 188 g/ha, read-out: Growth inhibition rate (%) Measured value): 10% | inhibition at 375 g/ha ([5]; Lolium multiflorum, Dose 375 g/ha, read-out: Growth inhibition rate (%) Measured value): 20%

CCc1cccc(C)c1N(C(=O)CCl)[C@@H](C)COC [S-metolachlor]
Raw weight (g) of forage corn ([1]; Dose 750 g/ha): 5.1 g | Growth inhibition rate (%) Measured value ([3]; Dose 7.5 g/ha): 7% | Growth inhibition rate (%) Measured value ([3]; Dose 375 g/ha): 7% | Growth inhibition rate (%) Measured value ([3]; Dose 750 g/ha): 7% | Raw weight (g) of forage corn ([4]; Dose 7.5 g/ha): 3.5 g | Raw weight (g) of forage corn ([4]; Dose 750 g/ha): 3.1 g | Growth inhibition rate (%) Measured value ([5]; Dose 281 g/ha): 7% | Growth inhibition rate (%) Measured value ([5]; Dose 500 g/ha): 10% | Growth inhibition rate (%) Measured value ([5]; Dose 625 g/ha): 13%
